Experimental data: patent US11905254B1, “1-(3-chlorobenzylideneamino)-5,5-diphenylimidazolidine-2,4-dione as an antimicrobial compound” (KING FAISAL UNIVERSITY, priority 2023, dated 2024)

Assays:
Type in all cases: cell-based
[1] = system: Chrysosporium keratinophilum; assay: agar plate disc-diffusion, antifungal activity by inhibition zone; details: Sabouraud's dextrose agar, 37° C., 72 hours, DMSO control subtracted
Description: (§1) The agar plate disc-diffusion method was applied. […] The discs were then placed onto the surface of agar plates (nutrient agar for bacteria and Sabouraud's dextrose agar for fungi) seeded with the test organism. Each plate contained 15 mL of the agar medium, previously seeded with 0.2 mL of the broth culture of each organism pregrown for 18 hours. The plates were incubated at 37° C. for 48 hours, and 72 hours for fungi. The inhibition zones was measured in millimeter. Discs impregnated with DMSO were used as a control, and its inhibition zone was subtracted from the tested compound actual inhibition zone.
(§2) The results of the antimicrobial testing can be observed in Tables 1 and 2, below, with ciprofloxacin serving as a reference.

Aspergillus flavus = assay: as above; details: Sabouraud's dextrose agar, 37° C., 72 hours, DMSO control subtracted
Description: as §1, §2

Bacillus Cereus = assay: agar plate disc-diffusion, antibacterial activity by inhibition zone; details: nutrient agar, 37° C., 48 hours, DMSO control subtracted
Description: as §1, §2

Escherichia coli = assay: as above; details: nutrient agar, 37° C., 48 hours, DMSO control subtracted
Description: as §1, §2

Pseudomonas aeruginosa = assay: as above; details: nutrient agar, 37° C., 48 hours, DMSO control subtracted
Description: as §1, §2

Staphylococcus aureus = assay: as above; details: nutrient agar, 37° C., 48 hours, DMSO control subtracted
Description: as §1, §2

different microbes = assay: antimicrobial testing, overall statement on Tables 1 and 2; details: summary of Tables 1 and 2, bacteria and fungi
Description: The agar plate disc-diffusion method was applied. Sterilized filter papers (6 mm in diameter) were wetted with 10 μL of a solution of 1-(3-chlorobenzylideneamino)-5,5-diphenylimidazolidine-2,4-dione (4) to be tested, containing 10 mg/mL in DMSO, and the discs were allowed to air dry. The discs were then placed onto the surface of agar plates (nutrient agar for bacteria and Sabouraud's dextrose agar for fungi) seeded with the test organism. Each plate contained 15 mL of the agar medium, previously seeded with 0.2 mL of the broth culture of each organism pregrown for 18 hours. The plates were incubated at 37° C. for 48 hours, and 72 hours for fungi. The inhibition zones was measured in millimeter. Discs impregnated with DMSO were used as a control, and its inhibition zone was subtracted from the tested compound actual inhibition zone.
The antibacterial activity was screened against gram positive bacteria namely Bacillus cereus and Staphylococcus aureus and gram-negative bacterial strains namely Pseudomonas aeruginosa and Escherichia coli, while the antifungal activity was screened against Aspergillus flavus and Chrysosporium keratinophilum.

[2] = A = concentration of comp. = 10,000 μL
[3] = B = concentration of comp. = 30.000 μL
[4] = C = concentration of comp. = 50,000 μL

Compound	inhibition zone [1, 2] [millimeter]	inhibition zone [1, 3] [millimeter]	inhibition zone [1, 4] [millimeter]	inhibition zone (Aspergillus flavus; [2]) [millimeter]	inhibition zone (Aspergillus flavus; [3]) [millimeter]	inhibition zone (Aspergillus flavus; [4]) [millimeter]	inhibition zone (Bacillus Cereus; [2]) [millimeter]	inhibition zone (Bacillus Cereus; [3]) [millimeter]	inhibition zone (Bacillus Cereus; [4]) [millimeter]	inhibition zone (Escherichia coli; [2]) [millimeter]	inhibition zone (Escherichia coli; [3]) [millimeter]	inhibition zone (Escherichia coli; [4]) [millimeter]	inhibition zone (Pseudomonas aeruginosa; [2]) [millimeter]	inhibition zone (Pseudomonas aeruginosa; [3]) [millimeter]	inhibition zone (Pseudomonas aeruginosa; [4]) [millimeter]	inhibition zone (Staphylococcus aureus; [2]) [millimeter]	inhibition zone (Staphylococcus aureus; [3]) [millimeter]	inhibition zone (Staphylococcus aureus; [4]) [millimeter]	antimicrobial activities (in words) (different microbes)
O=C(O)c1cn(C2CC2)c2cc(N3CCNCC3)c(F)cc2c1=O [Cip., ciprofloxacin, reference compound]	29	30	53	29	30	42	29	30	42	30	39	60	29	30	53	43	44	53	
O=C1NC(=O)C(c2ccccc2)(c2ccccc2)N1/N=C/c1cccc(Cl)c1 [Compound 4, 1-(3-chlorobenzylideneamino)-5,5-diphenylimidazolidine-2,4-dione]	24	25	41	20	24	35	26	28	39	24	30	46	23	24	42	24	30	40	high antimicrobial activities
